Experimental data taken from US20160115200A1, “New Use for JNK Inhibitor Molecules for Treatment of Various Diseases” (XIGEN INFLAMMATION LTD., priority 2013, published 2016).
Square brackets hold non-standard residues; d marks the D form. Peptide text beside a SMILES is read from it.

Columns and labels:
[1] = test system: Primary Rat Whole Blood Cells; experiment: Cytokine release in rat whole blood stimulated with LPS or PMA+ionomycin; type: cell-based; details: 10 μM inhibitor, PMA+ionomycin 25/500, 50/750, 50/1000 ng/mL, 4 h
Protocol: Given are the results for the control, 1 μM of SEQ ID NO: 172, 3 μM of SEQ ID NO: 172, and 10 μM of SEQ ID NO: 172 at different levels of LPS (ng/ml).
FIG. 17 Dose dependent inhibition of IL-2 release in rat whole blood stimulated with PMA+ionomycin. JNK inhibitor with SEQ ID NO: 172 was added at three different concentrations, namely 1, 3 and 10 μM 1 h before stimulation with PMA+ionomycin. Three doses of activators were added (25/500 ng/mL, 50/750 ng/mL and 50/1000 ng/mL) for 4 h. IL-2 release was assessed in supernatant.
Whole blood is collected from anesthetized rat or human healthy volunteers using a venipuncture connected to a pre-labeled vacuum tube containing sodium citrate. Tubes are gently mixed by inversion 7-8 times; and are then kept at RT until stimulation. JNK inhibitor of SEQ ID NO: 172 is prepared 6 times concentrated in PBS, and 30 μl/well of mix is added into 96-well plate. Whole blood is diluted by 1:2 in PBS and 120 μl of diluted blood is added in each well where either PBS alone or JNK inhibitor of SEQ ID NO: 172 has been previously added. Whole blood is incubated at 37° C.; 85 rpm (Stuart Orbital incubator SI500) for 60 min. […] Cytokine (IL-6, IL-2, IFNγ and TNFα) were then measured using standard Elisa kits (e.g. from R&D Systems: DuoSet Elisas; or from BD Biosciences: BD Opteia Set Elisa). Results are expressed as pg/ml of supernatant of the measured cytokine. […]

human whole blood [2] = experiment: Cytokine release in human whole blood stimulated 4 hours with LPS or PMA+ionomycin; type: cell-based; details: human whole blood, 1, 3, 10 μM
Protocol: FIG. 18 JNK inhibition and IL-6 release in human whole blood. The JNK inhibitor with SEQ ID NO: 172 was added at three different concentrations, namely 1, 3 and 10 μM 1 h before whole blood stimulation with LPS (0.02 ng/mL) for 4 hours.
FIG. 19 JNK inhibition and IL-2 release in human whole blood. The JNK inhibitor with SEQ ID NO: 172 was added at three different concentrations, namely 1, 3 and 10 μM 1 h before whole blood stimulation with PMA+ionomycin (25/700 ng/mL, 50/800 ng/mL and 50/1000 ng/mL) for 4 hours.
Whole blood is collected from anesthetized rat or human healthy volunteers using a venipuncture connected to a pre-labeled vacuum tube containing sodium citrate. Tubes are gently mixed by inversion 7-8 times; and are then kept at RT until stimulation. JNK inhibitor of SEQ ID NO: 172 is prepared 6 times concentrated in PBS, and 30 μl/well of mix is added into 96-well plate. Whole blood is diluted by 1:2 in PBS and 120 μl of diluted blood is added in each well where either PBS alone or JNK inhibitor of SEQ ID NO: 172 has been previously added. Whole blood is incubated at 37° C.; 85 rpm (Stuart Orbital incubator SI500) for 60 min. Activators (LPS) are the prepared, 30 μl/well of LPS, 6 times concentrated. After 60 min incubation, LPS is added to the blood, blood is mixed by pipetting up and down, and then kept for 4 h under agitation (85 rpm), at 37° C. After the 4 h incubation, the plates are centrifuged at about 770 g, 4° C. for 15 min in a pre-cooled centrifuge. Supernatants are finally collected and kept at −20° C. until cytokine measurement. Cytokine (IL-6, IL-2, IFNγ and TNFα) were then measured using standard Elisa kits (e.g. from R&D Systems: DuoSet Elisas; or from BD Biosciences: BD Opteia Set Elisa). Results are expressed as pg/ml of supernatant of the measured cytokine.
A similar experiment was conducted with PMA+ionomycin instead of LPS as activator/stimulant.

human whole blood [3] = experiment: Cytokine release in human whole blood stimulated 3 days with PHA-L or CD3/CD28 antibodies; type: cell-based; details: human whole blood, 1, 3, 10 μM
Protocol: Whole blood from human healthy volunteers was collected using a venipuncture connected to a pre-labeled vacuum tube containing sodium citrate. Tubes are gently mixed by inversion 7-8 times; and are then kept at RT until stimulation. 350 μl of RPMI+P/S were added into 1.2 ml-96-well plate. 10 times concentrated of SEQ ID NO: 172 was prepared in RPMI+P/S (50 μl per well). 50 μl was added into 1.2 ml-96 well plates. 50 μl of whole blood was then added in each well where either medium alone or JNK inhibitor has been previously added. Whole blood was incubated at 37° C., 5% CO2 for 60 min. 50 μl/well of ligands diluted in RPMI+P/S was prepared, corresponding to the final dilution 10 times concentrated. After 60 min of incubation, ligand was added; wells were then mixed by pipetting up and down the blood. Whole blood was incubated for 3 days at 37° C. (wells were mixed by pipetting each well up and down once per day). At the end of incubation, plates were mixed and then centrifuged at 2500 rpm, 4° C. for 15 min in a pre-cooled centrifuge. Cytokine were then measured using standard Elisa kits. Results are expressed as pg/ml of supernatant of the measured cytokine.
A similar experiment was carried out with slight modifications. In the case of […] stimulation, CD3 antibody was coated at 2 μg/mL in PBS overnight at 4° C. The day of experiment, wells were washed three times with PBS and left in PBS until use at 37° C. CD28 antibody was added 1 h after SEQ ID NO: 172 at final concentration of 2 μg/mL; supernatants were collected after 3 days of stimulation.

[4] = test system: endotoxins-induced uveitis albino rat model; experiment: Endotoxins-induced uveitis (EIU), single intravenous injection, clinical scoring 24 h after LPS; type: in vivo; design: key to EIU clinical score, median: clinical score per eye, 0 to 4 scale; details: for EIU clinical score, mean±SEM / EIU clinical score, median: 24 hours after LPS
Protocol: The aim of this study was to determine the effects of single intravenous injections of SEQ ID NO: 172 (0.015, 0.18, and 1.80 mg/kg) on the inflammatory response in an endotoxins-induced uveitis albino rat model and to compare these affects to those obtained with prior art JNK inhibitor of SEQ ID NO: 197 (2 mg/kg). As a further control served phosphate sodic dexamethasone.
Sixty (60) male Lewis rats were randomly divided into six (6) groups of ten (10) animals each. EIU was induced by footpad injection of lipopolysaccharide (LPS, 1 mg/kg). NaCl (0.9%), SEQ ID NO: 197 at 2 mg/kg and SEQ ID NO: 172 at three concentrations (1.80 mg/kg, 0.18 mg/kg and 0.015 mg/kg) were administered by intravenous injection. Phosphate sodic dexamethasone (20 μg/eye) was administered by sub-conjunctival injection in both eyes. 24 hours after LPS injection, inflammatory response was evaluated by clinical scoring.
The intensity of clinical ocular inflammation was scored on a scale from 0 to 4 for each eye: […]

## CC(C)C[C@H](NC(=O)[C@H](CC(N)=O)NC(=O)[C@H](CC(C)C)NC(=O)[C@@H](NC(=O)[C@@H](C)NC(=O)[C@@H]1CCCN1C(=O)[C@H](CCCNC(=N)N)NC(=O)[C@@H](CCCCN)NC(=O)[C@@H]1CCCN1C(=O)[C@H](CCCNC(=N)N)NC(=O)[C@@H](CCCNC(=N)N)NC(=O)[C@H](CCCNC(=N)N)NC(=O)[C@H](CCCNC(=N)N)NC(=O)[C@H](CCC(N)=O)NC(=O)[C@@H](CCCNC(=N)N)NC(=O)[C@H](CCCNC(=N)N)NC(=O)[C@H](CCCCN)NC(=O)[C@H](CCCCN)NC(=O)[C@H](N)CCCNC(=N)N)[C@@H](C)O)C(=O)N[C@H](Cc1ccccc1)C(N)=O [SEQ ID NO: 172, rKKRrQRRrRPkRPaTLNLf] (H-[dR]KKR[dR]QRR[dR]RP[dK]RP[dA]TLNL[dF]-NH2)
[1]
  PMA-iono-induced IL-2 release: efficiently reduce
Human whole blood [2]
  PMA+ionomycin-induced IFN-γ release: reduce the PMA+ionomycin-induced IFN-γ release in a dose-dependent manner
  PMA+ionomycin-induced IL-2 release: reduce the PMA+ionomycin-induced IL-2 release in a dose-dependent manner
  PMA+ionomycin-induced TNF-α release: reduce the PMA+ionomycin-induced TNF-α release in a dose-dependent manner
Human whole blood [2]; LPS 0.02 ng/mL
  LPS-induced IL-6 release: reduce the LPS-induced IL-6 release in a dose-dependent manner
Human whole blood [3]; CD3+/-CD28 antibodies 2 μg/mL
  CD3/CD28-induced TNF-α release: reduce the CD3/CD28-induced TNF-α release in a dose-dependent manner
Human whole blood [3]; PHA-L 5 μg/mL
  PHA-L-induced IL-2 release: reduce the PHA-L-induced IL-2 release in a dose-dependent manner
  PHA-L-induced TNF-α release: reduce the PHA-L-induced TNF-α release in a dose-dependent manner
[4]; 0.015 mg/kg i.v.
  EIU clinical score, mean±SEM: 2.3±0.3
  EIU clinical score, median: 2
[4]; 0.18 mg/kg i.v.
  EIU clinical score, mean±SEM: 2.4±0.3
  EIU clinical score, median: 2
[4]; 1.80 mg/kg i.v.
  EIU clinical score, mean±SEM: 2.1±0.3
  EIU clinical score, median: 2
[4]; intravenously injected at 0.015, 0.18, 1.80 mg/kg
  endotoxin-induced inflammation in the anterior chamber: also reduced the endotoxin-induced inflammation in the anterior chamber
